Data taken from publication PMC2813863, “In Vivo Evaluation of α7 Nicotinic Acetylcholine Receptor Agonists [^11C]A-582941 and [^11C]A-844606 in Mice and Conscious Monkeys” (PLoS ONE, 2010).
Values joined by “and” are separate entries in the source; they are usually repeats but may differ in a detail not shown here. Equal entries are not always repeated. Where two headings read alike, the source gives them in different places.

What was measured:
[1] = biological target: α7 nAChRs; details: read-out: KD for α-bungarotoxin; cited from earlier work
[2] = biological target: α7 nAChRs (Mus musculus, UniProt P49582); details: in vivo
α7 nAChRs (Mus musculus, UniProt P49582), sequence (P49582 23-502): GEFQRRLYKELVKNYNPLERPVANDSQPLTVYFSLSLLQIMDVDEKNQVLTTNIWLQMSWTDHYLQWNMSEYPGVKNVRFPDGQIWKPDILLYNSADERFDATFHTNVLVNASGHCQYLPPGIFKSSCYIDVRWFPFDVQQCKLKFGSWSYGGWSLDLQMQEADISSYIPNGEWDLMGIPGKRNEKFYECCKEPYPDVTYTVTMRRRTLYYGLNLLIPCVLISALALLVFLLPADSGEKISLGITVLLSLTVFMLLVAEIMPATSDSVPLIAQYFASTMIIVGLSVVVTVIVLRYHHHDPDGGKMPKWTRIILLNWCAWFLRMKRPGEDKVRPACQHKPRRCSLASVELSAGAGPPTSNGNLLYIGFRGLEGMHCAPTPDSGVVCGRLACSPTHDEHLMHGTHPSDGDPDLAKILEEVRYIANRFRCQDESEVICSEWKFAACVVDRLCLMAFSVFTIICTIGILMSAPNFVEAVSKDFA
Experimental: In the other group of mice, a blocking experiment to determine the α7 nAChRs-specific regional brain uptake of the tracers was carried out. Each tracer (2 MBq/0.055–0.096 nmol) was co-injected with each of the following blockers into mice, and 15 ([^11C]A-582941) or 30 ([^11C]A-844606) min later the mice were killed (n = 5) and the tissue uptake of ^11C was expressed as the %ID/g. […] Each blocker was dissolved in 1N HCl to 40 mg/ml and diluted up to 0.4 mg/ml with saline. The co-injected dose was 1 mg/kg. In the control mice the same amount of 0.01 N HCl in saline was co-injected.

[3] = system: α4β2; details: cited from earlier work
[4] = biological target: α4β2; details: read-out: K i α4β2; cited from earlier work
[5] = system: α7 nAChRs; details: read-out: IC50, displacement of [^3H]MLA binding; cited from earlier work
[6] = system: α4β2 nAChRs; details: read-out: IC50, displacement of [^3H]cytisine binding to α4β2 nAChRs; cited from earlier work
[7] = format: in vivo, mice; details: mouse, in vivo, iv
Experimental: Each tracer was intravenously injected into mice, and then the animals were killed by cervical dislocation at 1, 5, 15, 30 and 60 min after injection (n = 4). The body weight of the mice was 34.7±1.2 g. The injected doses of tracers were 2 MBq/0.049–0.051 nmol. Blood was collected by heart puncture and tissues were harvested. The carbon-11 in the samples was counted with an auto-gamma-counter (LKB Wallac Compu-gamma 1282CS, Turku, Finland) and the tissues were weighed. The tissue uptake of carbon-11 was expressed as the %ID/g.

[8] = biological target: α7 nAChRs (Macaca mulatta, UniProt Q866A2); details: rhesus monkey, in vivo
α7 nAChRs (Macaca mulatta, UniProt Q866A2), sequence (Q866A2 23-502): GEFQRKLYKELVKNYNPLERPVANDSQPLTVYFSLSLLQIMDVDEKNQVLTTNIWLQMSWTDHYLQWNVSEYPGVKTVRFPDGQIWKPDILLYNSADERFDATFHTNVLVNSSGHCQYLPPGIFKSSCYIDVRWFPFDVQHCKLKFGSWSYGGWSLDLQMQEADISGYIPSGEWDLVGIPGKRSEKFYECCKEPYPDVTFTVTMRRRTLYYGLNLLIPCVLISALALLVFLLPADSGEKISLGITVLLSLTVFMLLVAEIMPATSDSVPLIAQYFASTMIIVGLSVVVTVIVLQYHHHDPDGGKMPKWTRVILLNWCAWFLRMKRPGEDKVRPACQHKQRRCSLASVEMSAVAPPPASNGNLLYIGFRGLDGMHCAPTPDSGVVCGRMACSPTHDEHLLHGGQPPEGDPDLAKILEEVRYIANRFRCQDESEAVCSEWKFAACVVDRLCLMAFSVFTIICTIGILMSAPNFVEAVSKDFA
Text: Four young-adult male rhesus monkeys (Macaca mulatta) weighing from 4 to 6 kg were used for PET measurements. The monkeys were trained for the protocol as described previously. The magnetic resonance images (MRI) of all monkeys were obtained with a Toshiba MRT-50A/II (0.5T) under anesthesia with pentobarbital. The stereotactic coordinates of PET and MRI were adjusted based on the orbitomeatal (OM) line with monkeys secured in a specially designed head holder. At least 1 month before the PET study, an acrylic plate, with which the monkey was fixed to the monkey chair, was attached to the head under pentobarbital anesthesia as described previously.
PET data were collected on a high-resolution PET scanner (SHR-7700; Hamamatsu Photonics K.K., Hamamatsu, Japan). The camera consists of 16 detector rings and acquires 20 slices at a center-to-center interval of 3.6 mm with a transaxial resolution of 2.6 mm full width at half maximum. After an overnight fast, the monkey was fixed to the monkey chair with stereotactic coordinates aligned parallel to the OM line. A cannula was implanted in the posterior tibial vein, and [^11C]A-582941 or [^11C]A-844606 (1152–1336 MBq/26.8–63.1 nmol) was injected into the monkey through the venous cannula. PET images were acquired over 91 min (10 sec ×6 frames, 30 sec ×6 frames, 1 min ×12 frames, and 3 min ×25 frames). PET scans were reconstructed using a filtered backprojection method in a 100×100 matrix, with a voxel size of 1.2 mm ×1.2 mm ×3.6 mm. Summed image of late phase (from 70 to 91 min post-injection) was calculated as a static SUV (activity/ml tissue)/(injected activity/g body weight) image. Each MRI was coregistered to an early (from 0 to 20 min) summed image using normalized mutual information, and ROIs were placed on the summed image with reference to the coregistered MRI. Three monkeys underwent [^11C]A-582941 scan morning, and then two of the three monkeys underwent [^11C]A-844606 afternoon (baseline). Within 6 months the last one of the three monkeys underwent two [^11C]A-844606 scans in the baseline (morning) and blocking (afternoon) conditions 30 min after injection of SSR180711 (5.0 mg/kg, i.v.), and the fourth monkey underwent two [^11C]A-582941 scans in the baseline and blocking conditions in the same way.
For the semi-quantitative analysis of PET data, arterial samples were obtained every 8 sec from injection to 64 sec, and then again at 1.5, 2.5, 4, 6, 10, 20, 30, 45, 60, and 90 min after each tracer injection. Blood samples were centrifuged to separate the plasma, weighed, and subjected to radioactivity measurement. For metabolite analysis, methanol was added to some plasma samples, the resulting solutions were centrifuged, and the supernatants were developed with TLC plates (AL SIL G/UV; Whatman, Kent, UK) using a mobile phase of dichloromethane/diethyl ether/ethanol/triethylamine (20/20/2/2, v/v/v/v). At each sampling time point, the ratio of radioactivity in the unmetabolized fraction to that in the total plasma (metabolite plus unmetabolite) was determined using a phosphoimaging plate (BAS-1500 MAC; Fuji Film Co., Tokyo, Japan). The pTACs corrected for metabolite were obtained. The tTACs in each region of interest (ROI) in the brain were calculated as the %ID/ml or as a standardized uptake value (SUV), (activity/ml tissue)/(injected activity/g body weight). Using the tTACs and the metabolite-corrected pTAC, the V T for each tracer was evaluated by Logan graphical analysis.

[9] = biological target: 5-HT3 receptors; assay: Displacement of [^3H]-BRL 43694 (Granisetron) binding
[10] = biological target: heteromeric α4β2 subtypes; details: rat brain membranes; read-out: K i, [^3H]cytisine binding; cited from earlier work
[11] = system: >75 binding sites; details: 10 µM, exception 5-HT3 receptors; cited from earlier work
[12] = system: 5-HT3 receptors; details: cited from earlier work
[13] = cited from earlier work

α-bungarotoxin
Kd [1]: 1.67 nM

O=C(Oc1ccc(Br)cc1)N1CCN2CCC1CC2 [SSR180711]
% Injected dose/g tissue, Cerebellum [2]: 3.32±0.25 % Injected dose/g tissue and 5.10±0.69 % Injected dose/g tissue
% Injected dose/g tissue, Cerebral cortex [2]: 5.02±0.46 % Injected dose/g tissue and 8.43±1.07 % Injected dose/g tissue
% Injected dose/g tissue, Hippocampus [2]: 4.63±0.51 % Injected dose/g tissue and 6.26±0.64 % Injected dose/g tissue
% Injected dose/g tissue, Hypothalamus [2]: 3.49±0.36 % Injected dose/g tissue and 4.74±0.70 % Injected dose/g tissue
% Injected dose/g tissue, Medulla oblongata [2]: 3.15±0.14 % Injected dose/g tissue and 5.35±0.33 % Injected dose/g tissue
% Injected dose/g tissue, Midbrain [2]: 3.91±0.45 % Injected dose/g tissue and 6.69±0.79 % Injected dose/g tissue
% Injected dose/g tissue, Striatum [2]: 4.19±1.04 % Injected dose/g tissue and 7.32±1.84 % Injected dose/g tissue
% Injected dose/g tissue, Whole brain [2]: 4.21±0.39 % Injected dose/g tissue and 6.82±0.64 % Injected dose/g tissue
IC50 ([3]; human receptor): > 50 µM

c1cncc(OC[C@@H]2CCN2)c1 [A-85380, 3-(2(S)-azetidynilmethoxy)pyridine]
% Injected dose/g tissue, Blood [2]: 0.85±0.06 % Injected dose/g tissue and 0.54±0.12 % Injected dose/g tissue
% Injected dose/g tissue, Cerebellum [2]: 3.76±0.50 % Injected dose/g tissue and 6.22±1.26 % Injected dose/g tissue
% Injected dose/g tissue, Cerebral cortex [2]: 4.53±0.61 % Injected dose/g tissue and 7.57±1.48 % Injected dose/g tissue
% Injected dose/g tissue, Hippocampus [2]: 3.92±0.54 % Injected dose/g tissue and 5.58±1.26 % Injected dose/g tissue
% Injected dose/g tissue, Hypothalamus [2]: 3.97±0.65 % Injected dose/g tissue and 5.00±0.96 % Injected dose/g tissue
% Injected dose/g tissue, Medulla oblongata [2]: 3.99±0.49 % Injected dose/g tissue and 5.46±1.15 % Injected dose/g tissue
% Injected dose/g tissue, Midbrain [2]: 4.52±0.68 % Injected dose/g tissue and 6.84±1.71 % Injected dose/g tissue
% Injected dose/g tissue, Striatum [2]: 4.33±0.75 % Injected dose/g tissue and 6.47±1.38 % Injected dose/g tissue
% Injected dose/g tissue, Whole brain [2]: 4.26±0.57 % Injected dose/g tissue and 6.64±1.33 % Injected dose/g tissue
Ki ([3]; read-out: K i α4β2): 0.04 nM
Ki [4]: 0.05 nM

CN1CC2CN(c3ccc4oc5ccccc5c(=O)c4c3)CC2C1 (centres unmarked) [A-844606, 2-(5-methyl-hexahydro-pyrrolo[3,4-c]pyrrol-2-yl)-xanthene-9-one]
% Injected dose/g tissue, Blood [2]: 0.91±0.10 % Injected dose/g tissue
% Injected dose/g tissue, Cerebellum [2]: 3.62±0.10 % Injected dose/g tissue
% Injected dose/g tissue, Cerebral cortex [2]: 4.78±0.19 % Injected dose/g tissue
% Injected dose/g tissue, Hippocampus [2]: 4.20±0.55 % Injected dose/g tissue
% Injected dose/g tissue, Hypothalamus [2]: 3.50±0.87 % Injected dose/g tissue
% Injected dose/g tissue, Medulla oblongata [2]: 4.04±0.19 % Injected dose/g tissue
% Injected dose/g tissue, Midbrain [2]: 4.29±0.11 % Injected dose/g tissue
% Injected dose/g tissue, Striatum [2]: 3.94±0.89 % Injected dose/g tissue
% Injected dose/g tissue, Whole brain [2]: 4.27±0.18 % Injected dose/g tissue
IC50 [5]: 11 nM
IC50 [6]: > 30 µM

[11CH3]N1CC2CN(c3ccc4oc5ccccc5c(=O)c4c3)CC2C1 (centres unmarked) [[^11C]A-844606, 2-(5-[^11C]Methyl-hexahydro-pyrrolo[3,4-c]pyrrol-2-yl)-xanthene-9-one]
time of peak radioactivity in the brain [7]: 30 min
% Injected dose/g tissue, Blood [2]: 0.57±0.11 % Injected dose/g tissue
% Injected dose/g tissue, Cerebellum [2]: 4.54±0.63 % Injected dose/g tissue
% Injected dose/g tissue, Cerebral cortex [2]: 7.63±0.98 % Injected dose/g tissue
% Injected dose/g tissue, Hippocampus [2]: 4.46±0.90 % Injected dose/g tissue
% Injected dose/g tissue, Hypothalamus [2]: 4.21±1.55 % Injected dose/g tissue
% Injected dose/g tissue, Medulla oblongata [2]: 5.25±0.95 % Injected dose/g tissue
% Injected dose/g tissue, Midbrain [2]: 5.43±0.75 % Injected dose/g tissue
% Injected dose/g tissue, Striatum [2]: 5.01±2.00 % Injected dose/g tissue
% Injected dose/g tissue, Whole brain [2]: 5.83±0.56 % Injected dose/g tissue
V T Baseline, Cerebellum ([8]; male): 95.9 mL/g
V T Baseline, Frontal cortex ([8]; male): 132.2 mL/g
V T Baseline, Hippocampus ([8]; male): 123.1 mL/g
V T Baseline, Thalamus ([8]; male): 141.5 mL/g
V T SSR180711, Cerebellum ([8]; male): 52.8 mL/g
V T SSR180711, Frontal cortex ([8]; male): 65.3 mL/g
V T SSR180711, Hippocampus ([8]; male): 57.5 mL/g
V T SSR180711, Thalamus ([8]; male): 69.3 mL/g
V T, cerebellum (mean ± SD) ([8]; male): 95.2±32.8
V T, cerebellum (range) ([8]; male): 62.1–127.7
V T, frontal cortex (mean ± SD) ([8]; male): 130.9±40.4
V T, frontal cortex (range) ([8]; male): 89.8–170.6
V T, hippocampus (mean ± SD) ([8]; male): 118.5±33.6
V T, hippocampus (range) ([8]; male): 82.9–149.6
V T, thalamus (mean ± SD) ([8]; male): 138.6±42.3
V T, thalamus (range) ([8]; male): 95.0–179.4
time at which brain radioactivity reached a plateau ([8]; male): 40 to 60 min
time at which radioactivity in the cerebellum reached a plateau ([8]; male): 40 min
% decrease of V T, Cerebellum [8]: 45.0%
% decrease of V T, Frontal cortex [8]: 50.6%
% decrease of V T, Hippocampus [8]: 53.3%
% decrease of V T, Thalamus [8]: 51.0%
decrease of V T by pretreatment with SSR180711 [8]: ~50%

CN1CC2CN(c3ccc(-c4ccccc4)nn3)CC2C1 (centres unmarked) [A-582941, 2-methyl-5-[6-phenylpyridazine-3-yl]octahydropyrrolo[3,4-c]pyrrole]
% Injected dose/g tissue, Blood [2]: 0.61±0.07 % Injected dose/g tissue
% Injected dose/g tissue, Cerebellum [2]: 5.17±0.97 % Injected dose/g tissue
% Injected dose/g tissue, Cerebral cortex [2]: 8.38±1.22 % Injected dose/g tissue
% Injected dose/g tissue, Hippocampus [2]: 6.48±1.31 % Injected dose/g tissue
% Injected dose/g tissue, Hypothalamus [2]: 4.76±1.17 % Injected dose/g tissue
% Injected dose/g tissue, Medulla oblongata [2]: 5.58±1.26 % Injected dose/g tissue
% Injected dose/g tissue, Midbrain [2]: 5.80±1.46 % Injected dose/g tissue
% Injected dose/g tissue, Striatum [2]: 6.81±1.05 % Injected dose/g tissue
% Injected dose/g tissue, Whole brain [2]: 6.71±1.09 % Injected dose/g tissue
K i for 5-HT3 receptors relative to that for α7 nAChRs [9]: ~15 fold
Ki [10]: > 100 µM
displacement of binding of >75 binding sites [11]: did not show significant displacement
displacement of [^3H]-BRL 43694 (Granisetron) binding ([12]; at 10 µM): > 85%
Ki ([12]; read-out: K i for 5-HT3 receptors): 154 nM
clog P [13]: 2.3
pKa, N-methylated tertiary amine [13]: 8.75
pKa, aminopyridazine [13]: 4.44
log D at pH 7.4 ([13]; pH 7.4): 1.0
